Converted amounts (≈) assume the structure as drawn.
Experiments:
[1] = system: MCF 7 cells; assay: MCF 7 cell growth inhibition test; type: cell-based; details: Homo sapiens, MCF7; MCF-7 cells, contact for 72 hours; read-out: cell growth inhibitory activity IC50, MCF-7
Protocol: (§1) Compound (I) was examined for C-kinase inhibitory activity and cell growth inhibitory activity by the following method.
(1) MCF 7 cell growth inhibition test:
(§2) MCF 7 cells (4.5×10^4 cells/ml) prepared in RPMI 1640 medium containing 10% fetal calf serum, 10 μg/ml insulin and 10^-8 M estradiol are put into wells of a 96-well microtiter plate in the amount of 0.1 ml per each well. After incubation at 37° C. overnight in CO2 -incubator, 0.05 ml each of a test sample appropriately diluted with the culture medium is added to each well. In the case of contact for 72 hours, the cells are further cultured in CO2 -incubator, and then the culture supernatant is removed and the wells are washed once with PBS(-). Thereafter, 0.1 ml of fresh medium is added to each well, followed by culturing at 37° C. for 72 hours in CO2 -incubator. After the culture supernatant is removed, 0.1 ml of the culture medium containing 0.02% Neutral Red is added to each well, followed by culturing at 37° C. for one hour in CO2 -incubator, whereby the cells are stained. Then, the culture supernatant is removed and the cells are washed once with physiological saline. The pigment is extracted with 0.001N HCl/30% ethanol and absorption is measured at 550 nm with a microplate reader. By comparing the absorption of intact cells with those of the cells treated with a test compound in known concentrations, the concentration of the test compound at which growth of the cells is inhibited 50% is calculated as IC50.

[2] = molecular target: C-kinase (protein kinase C); assay: C-Kinase inhibitory activity test; type: biochemical; details: enzyme activity inhibited 50%
[3] = system: HeLaS3 cells; assay: HeLaS3 cell growth inhibition test; type: cell-based; details: Homo sapiens, HeLa S3; HeLaS3 cells, contact for 72 hours; read-out: cell growth inhibitory activity IC50, HeLaS3
Protocol: as §1, §2
(3) HeLaS3 cell growth inhibition test:
HeLaS3 cells (3×10^4 cells/ml) prepared in MEM medium containing 10% fetal calf serum and 2 mM glutamine are put into wells of a 96-well microtiter plate in the amount of 0.1 ml per each well.
Thereafter, the test is carried out in the same manner as in (1).

[4] = system: COLO320DM cells; assay: COLO320DM cell growth inhibition test; type: cell-based; details: Homo sapiens, COLO 320DM; COLO320DM cells, cells counted with a microcell counter; read-out: cell growth inhibitory activity IC50, COLO320DM
Protocol: as §2, with “After” for “MCF 7 cells (4.5×10^4 cells/ml) prepared in RPMI 1640 medium containing 10% fetal calf serum, 10 μg/ml insulin and 10^-8 M estradiol are put into wells of a 96-well microtiter plate in the amount of 0.1 ml per each well. After”, “reader.” for “reader. By comparing the absorption of intact cells with those of the cells treated with a test compound in known concentrations, the concentration of the test compound at which growth of the cells is inhibited 50% is calculated as IC50.”
(4) COLO320DM cell growth inhibition test:
Thereafter, the test is carried out in the same manner as in (1) except that the cells are counted with a microcell counter.

Row | SMILES | IC50 [1] [µg/mL] | C-Kinase inhibitory activity IC50 [2] [µg/mL] | IC50 [3] [µg/mL] | IC50 [4] [µg/mL]
1 | CC12OC(CC13CO3)n1c3ccccc3c3c4c(c5c6ccccc6n2c5c31)CNC4=O (stereo not shown) [Compound 36] | 0.52 (≈ 1.23 µM) | 0.02 | 0.08 (≈ 0.19 µM) | 0.12 (≈ 0.285 µM)
2 | CC12OC(CC1(O)CNC(=O)C1CCCN1)n1c3ccccc3c3c4c(c5c6ccccc6n2c5c31)CNC4=O (stereo not shown) [Compound 35] | 0.27 (≈ 0.504 µM) |  | 0.05 (≈ 0.0934 µM) | 0.26 (≈ 0.485 µM)
3 | C[C@]12O[C@H](C[C@]1(O)COC1CCCCO1)n1c3ccccc3c3c4c(c5c6ccccc6n2c5c31)CNC4=O (stereo partly shown) [Compound 28] | 1 (≈ 1.91 µM) |  | 0.2 (≈ 0.382 µM) | 0.32 (≈ 0.611 µM)
4 | C[C@]12O[C@H](C[C@]1(O)CO)n1c3ccc(N)cc3c3c4c(c5c6ccccc6n2c5c31)CNC4=O (relative stereo) [Compound 23] | 0.34 (≈ 0.748 µM) | 0.038 | 0.15 (≈ 0.33 µM) | 0.22 (≈ 0.484 µM)
5 | CC12OC(CC1(O)CN1CCCCC1)n1c3ccccc3c3c4c(c5c6ccccc6n2c5c31)CNC4=O (stereo not shown) [Compound 41] | > 1 |  | 0.06 (≈ 0.118 µM) | 0.07 (≈ 0.138 µM)
6 | CC12OC(CC1(O)CN1CCOCC1)n1c3ccccc3c3c4c(c5c6ccccc6n2c5c31)CNC4=O (stereo not shown) [Compound 38] |  | 0.10 | 0.18 (≈ 0.354 µM) | 0.3 (≈ 0.59 µM)
7 | CC12OC(CC1(O)C=NO)n1c3ccccc3c3c4c(c5c6ccccc6n2c5c31)CNC4=O (stereo not shown) [Compound 50] |  | 0.013 | 0.22 (≈ 0.486 µM) | 0.17 (≈ 0.376 µM)
8 | COC(=O)C1(O)CC2OC1(C)n1c3ccccc3c3c4c(c5c6ccccc6n2c5c31)C(=O)N(CCN(C)C)C4=O (stereo not shown) [Compound 69] | > 1 |  | 0.88 (≈ 1.59 µM) | 0.68 (≈ 1.23 µM)
9 | C[C@]12O[C@H](C[C@]1(O)COC(=O)CCC(=O)O)n1c3ccccc3c3c4c(c5c6ccccc6n2c5c31)CNC4=O (relative stereo) [Compound 27] | > 1 | 0.017 | 0.53 (≈ 0.982 µM) | > 1
10 | CC12OC(CC1(O)CO)n1c3ccccc3c3c4c(c5c6ccccc6n2c5c31)C(=O)N(N)C4=O (stereo not shown) [Compound 72] | 0.2 (≈ 0.427 µM) | 0.22 | 0.24 (≈ 0.512 µM) | 0.37 (≈ 0.79 µM)
11 | C[C@]12O[C@H](C[C@]1(O)C=NNC1=NCCN1)n1c3ccccc3c3c4c(c5c6ccccc6n2c5c31)CNC4=O [Compound 51] | 0.5 (≈ 0.962 µM) | 0.031 | 0.23 (≈ 0.443 µM) | 1 (≈ 1.92 µM)
12 | COC(=O)[C@@]1(O)C[C@H]2O[C@]1(C)n1c3ccc(O)cc3c3c4c(c5c6cc(O)ccc6n2c5c31)C(=O)NC4 (relative stereo) [Compound 16] | 0.84 (≈ 1.68 µM) | 0.005 | 0.44 (≈ 0.881 µM) | 
13 | COC(=O)[C@@]1(O)C[C@H]2O[C@]1(C)n1c3ccc(N)cc3c3c4c(c5c6cc(N)ccc6n2c5c31)C(=O)NC4 (relative stereo) [Compound 10] | 0.95 (≈ 1.91 µM) | 0.02 | 0.07 (≈ 0.141 µM) | 0.1 (≈ 0.201 µM)
14 | CC12OC(CC1(O)CNCC(O)CO)n1c3ccccc3c3c4c(c5c6ccccc6n2c5c31)CNC4=O (stereo not shown) [Compound 43] | 0.52 (≈ 1.01 µM) | 0.02 | 0.19 (≈ 0.371 µM) | > 1
15 | CN1CC2(CC3OC2(C)n2c4ccccc4c4c5c(c6c7ccccc7n3c6c42)C(=O)NC5)OC1=O (stereo not shown) [Compound 59] | 1 (≈ 2.09 µM) | 0.046 | 0.17 (≈ 0.355 µM) | 0.39 (≈ 0.815 µM)
16 | CC12OC(CC1(O)C=NNC(=N)N)n1c3ccccc3c3c4c(c5c6ccccc6n2c5c31)CNC4=O (stereo not shown) [Compound 52] | 0.4 (≈ 0.81 µM) | 0.021 | 0.46 (≈ 0.932 µM) | > 1
17 | CN(C)CCN1C(=O)c2c(c3c4ccccc4n4c3c3c2c2ccccc2n3C2CC(O)(CO)C4(C)O2)C1=O (stereo not shown) [Compound 70] | 0.45 (≈ 0.858 µM) |  | 0.5 (≈ 0.953 µM) | 0.41 (≈ 0.782 µM)
18 | C[C@]12O[C@H](C[C@]1(O)CO)n1c3ccc(O)cc3c3c4c(c5c6ccccc6n2c5c31)CNC4=O (relative stereo) [Compound 21] | 0.76 (≈ 1.67 µM) | 0.01 | 0.46 (≈ 1.01 µM) | 0.29 (≈ 0.637 µM)

Row | SMILES | IC50 [1] [µg/mL] | C-Kinase inhibitory activity IC50 [2] [µg/mL] | IC50 [3] [µg/mL] | IC50 [4] [µg/mL]
19 | CC12OC(CC13CN(CC=NNC(=N)N)C(=O)O3)n1c3ccccc3c3c4c(c5c6ccccc6n2c5c31)CNC4=O (stereo not shown) [Compound 63] | 0.45 (≈ 0.8 µM) | 0.053 | 0.2 (≈ 0.355 µM) | 0.64 (≈ 1.14 µM)
20 | CC12OC(CC1(O)C(=O)NO)n1c3ccccc3c3c4c(c5c6ccccc6n2c5c31)C(=O)NC4=O (stereo not shown) [Compound 76] | 0.62 (≈ 1.29 µM) |  | 0.4 (≈ 0.829 µM) | 0.06 (≈ 0.124 µM)
21 | CC12OC(CC1(O)CN)n1c3ccccc3c3c4c(c5c6ccccc6n2c5c31)C(=O)N(N)C4=O (stereo not shown) [Compound 71] | 1 (≈ 2.14 µM) |  | > 1 | > 1
22 | CC12OC(CC1(O)CO)n1c3ccccc3c3c4c(c5c6ccccc6n2c5c31)C(=O)NC4=O (stereo not shown) [Compound 67] |  | 0.016 | 0.95 (≈ 2.1 µM) | 0.18 (≈ 0.397 µM)
23 | Cc1ccc2c(c1)c1c3c(c4c5ccccc5n5c4c1n2[C@H]1C[C@](O)(CO)[C@]5(C)O1)CNC3=O (relative stereo) [Compound 26] | 0.26 (≈ 0.573 µM) |  | 0.03 (≈ 0.0662 µM) | 0.03 (≈ 0.0662 µM)
24 | CN(C)C=NC[C@@]1(O)C[C@H]2O[C@]1(C)n1c3ccccc3c3c4c(c5c6ccccc6n2c5c31)C(=O)NC4 (relative stereo) [Compound 33] | 0.26 (≈ 0.527 µM) |  | 0.08 (≈ 0.162 µM) | 1 (≈ 2.03 µM)
25 | COC(=O)[C@@]1(O)C[C@H]2O[C@]1(C)n1c3ccccc3c3c4c(c5c6cc(N(C)C)ccc6n2c5c31)C(=O)NC4 (relative stereo) [Compound 12] | 0.36 (≈ 0.705 µM) |  | 0.17 (≈ 0.333 µM) | 0.11 (≈ 0.215 µM)
26 | CN1CC2(CC3OC2(C)n2c4ccccc4c4c5c(c6c7ccccc7n3c6c42)C(=O)NC5=O)OC1=O (stereo not shown) [Compound 75] |  |  | 0.27 (≈ 0.548 µM) | 0.18 (≈ 0.365 µM)
27 | CC12OC(CC1(O)CNC(=O)CN)n1c3ccccc3c3c4c(c5c6ccccc6n2c5c31)CNC4=O (stereo not shown) [Compound 34] | 0.24 (≈ 0.484 µM) |  | 0.03 (≈ 0.0605 µM) | 0.17 (≈ 0.343 µM)
28 | C[C@]12O[C@H](C[C@]1(O)CO)n1c3ccc(Br)cc3c3c4c(c5c6ccccc6n2c5c31)CNC4=O (relative stereo) [Compound 24] | 0.19 (≈ 0.367 µM) |  | 0.06 (≈ 0.116 µM) | 0.06 (≈ 0.116 µM)
29 | C[C@]12O[C@H](C[C@]1(O)CNCC(=O)O)n1c3ccccc3c3c4c(c5c6ccccc6n2c5c31)CNC4=O (relative stereo) [Compound 32] | 0.74 (≈ 1.49 µM) | 0.01 | 0.22 (≈ 0.443 µM) | > 1
30 | COC(=O)CNC[C@@]1(O)C[C@H]2O[C@]1(C)n1c3ccccc3c3c4c(c5c6ccccc6n2c5c31)C(=O)NC4 (relative stereo) [Compound 31] | 0.8 (≈ 1.57 µM) |  | 0.08 (≈ 0.157 µM) | 0.31 (≈ 0.607 µM)
31 | COC(=O)[C@@]1(O)C[C@H]2O[C@]1(C)n1c3ccccc3c3c4c(c5c6cccc(N)c6n2c5c31)C(=O)NC4 (relative stereo) [Compound 11] | 0.47 (≈ 0.974 µM) |  | 0.1 (≈ 0.207 µM) | 0.16 (≈ 0.332 µM)
32 | CC12OC(CC1(O)CN1CCNCC1)n1c3ccccc3c3c4c(c5c6ccccc6n2c5c31)CNC4=O (stereo not shown) [Compound 40] | > 1 |  | 0.38 (≈ 0.749 µM) | > 1
33 | COC(=O)[C@@]1(O)C[C@H]2O[C@]1(C)n1c3ccccc3c3c4c(c5c6cc(N)ccc6n2c5c31)C(=O)NC4 (relative stereo) [Compound 9] | 0.13 (≈ 0.269 µM) | 0.175 | 0.01 (≈ 0.0207 µM) | 0.05 (≈ 0.104 µM)
34 | CC12OC(CC1(O)CN1CCSCC1)n1c3ccccc3c3c4c(c5c6ccccc6n2c5c31)CNC4=O (stereo not shown) [Compound 39] | > 1 |  | 0.14 (≈ 0.267 µM) | 0.38 (≈ 0.724 µM)
35 | CC1=NCC2(CC3OC2(C)n2c4ccccc4c4c5c(c6c7ccccc7n3c6c42)C(=O)NC5)O1 (stereo not shown) [Compound 56] | 0.4 (≈ 0.865 µM) | 0.006 | 0.07 (≈ 0.151 µM) | 1 (≈ 2.16 µM)
